Patent US7138361B2, “Herbicidal heterocycles” (E. I. du Pont de Nemours and Company, priority 2000, dated 2006)

Assays:
Assay type in all cases: in vivo
[1] = system: giant foxtail (Setaria viridis); assay: Test A postemergence, sprayed to runoff; details: approx. eleven days
Description: (§1) Seeds of barnyardgrass (Echinochloa crus-galli), crabgrass (Digitaria spp.), giant foxtail (Setaria viridis), morning glory (Ipomoea spp.), redroot pigweed (Amaranthus retroflexus) and velvetleaf (Abutilon theophrasti) were planted into a sandy loam soil and treated preemergence by soil drench with test chemicals formulated in a non-phytotoxic solvent mixture which included a surfactant. At the same time, these crop and weed species were also treated postemergence sprayed to runoff with test chemicals formulated in the same manner. Plants ranged in height from two to eighteen cm and were in the one- to two-leaf stage for the postemergence treatment. Treated plants and untreated controls were maintained in a greenhouse for approximately eleven days, after which time all treated plants were compared to untreated controls and visually evaluated for injury. Plant response ratings, summarized in Table A, are based on a 0 to 10 scale where 0 is no effect and 10 is complete control. A dash (-) response means no test results.

[2] = system: redroot pigweed (Amaranthus retroflexus); assay: Test A postemergence, sprayed to runoff; details: approx. eleven days
Description: as §1

[3] = system: barnyardgrass (Echinochloa crus-galli); assay: Test A postemergence, sprayed to runoff; details: approx. eleven days
Description: as §1

[4] = system: crabgrass (Digitaria spp.); assay: Test A postemergence, sprayed to runoff; details: approx. eleven days
Description: as §1

[5] = system: velvetleaf (Abutilon theophrasti); assay: Test A postemergence, sprayed to runoff; parameters: scale not given here; details: approx. eleven days
Description: as §1

[6] = system: morning glory (Ipomoea spp.); assay: Test A postemergence, sprayed to runoff; parameters: scale not given here; details: Morningglory, approx. eleven days
Description: as §1

[7] = system: giant foxtail (Setaria viridis); assay: Test A preemergence, soil drench; details: approx. eleven days
Description: as §1

[8] = system: redroot pigweed (Amaranthus retroflexus); assay: Test A preemergence, soil drench; details: approx. eleven days
Description: as §1

[9] = system: velvetleaf (Abutilon theophrasti); assay: Test A preemergence, soil drench; details: approx. eleven days
Description: as §1

[10] = system: barnyardgrass (Echinochloa crus-galli); assay: Test A preemergence, soil drench; details: approx. eleven days
Description: as §1

[11] = system: morning glory (Ipomoea spp.); assay: Test A preemergence, soil drench; details: Morningglory, approx. eleven days
Description: as §1

[12] = system: crabgrass (Digitaria spp.); assay: Test A preemergence, soil drench; details: approx. eleven days
Description: as §1

CC(C)(C)c1ccn(C2CCN(c3cccc(C(F)(F)F)c3)C2=O)n1 (stereo not drawn) [Example 3, 3-[3-(1,1-dimethylethyl)-1H-pyrazol-1-yl]-1-[3-(trifluoromethyl)phenyl]-2-pyrrolidinone]
Plant response rating (visual injury vs untreated controls) ([1]; Rate 250 g/ha): 0
Plant response rating (visual injury vs untreated controls) ([1]; Rate 1000 g/ha): 10
Plant response rating (visual injury vs untreated controls) ([2]; Rate 250 g/ha): 60
Plant response rating (visual injury vs untreated controls) ([2]; Rate 1000 g/ha): 10
Plant response rating (visual injury vs untreated controls) ([3]; Rate 250 g/ha): 20
Plant response rating (visual injury vs untreated controls) ([3]; Rate 1000 g/ha): 10
Plant response rating (visual injury vs untreated controls) ([4]; Rate 250 g/ha): 0
Plant response rating (visual injury vs untreated controls) ([4]; Rate 1000 g/ha): 0
Plant response rating (visual injury vs untreated controls) ([5]; Rate 250 g/ha): 0
Plant response rating (visual injury vs untreated controls) ([5]; Rate 1000 g/ha): 0
Plant response rating (visual injury vs untreated controls) ([6]; Rate 250 g/ha): 10
Plant response rating (visual injury vs untreated controls) ([6]; Rate 1000 g/ha): 10
Plant response rating (visual injury vs untreated controls) ([7]; Rate 250 g/ha): 100
Plant response rating (visual injury vs untreated controls) ([7]; Rate 1000 g/ha): 100
Plant response rating (visual injury vs untreated controls) ([8]; Rate 250 g/ha): 100
Plant response rating (visual injury vs untreated controls) ([8]; Rate 1000 g/ha): 100
Plant response rating (visual injury vs untreated controls) ([9]; Rate 250 g/ha): 0
Plant response rating (visual injury vs untreated controls) ([9]; Rate 1000 g/ha): 0
Plant response rating (visual injury vs untreated controls) ([10]; Rate 250 g/ha): 100
Plant response rating (visual injury vs untreated controls) ([10]; Rate 1000 g/ha): 100
Plant response rating (visual injury vs untreated controls) ([11]; Rate 250 g/ha): 0
Plant response rating (visual injury vs untreated controls) ([11]; Rate 1000 g/ha): 0
Plant response rating (visual injury vs untreated controls) ([12]; Rate 250 g/ha): 100
Plant response rating (visual injury vs untreated controls) ([12]; Rate 1000 g/ha): 100

CCC(C)c1nn(C2CCN(c3cccc(C(F)(F)F)c3)C2=O)cc1Cl (stereo not drawn) [Compound 13]
Plant response rating (visual injury vs untreated controls) ([1]; Rate 500 g/ha): 0
Plant response rating (visual injury vs untreated controls) ([1]; Rate 2000 g/ha): 0
Plant response rating (visual injury vs untreated controls) ([2]; Rate 500 g/ha): 20
Plant response rating (visual injury vs untreated controls) ([2]; Rate 2000 g/ha): 70
Plant response rating (visual injury vs untreated controls) ([3]; Rate 500 g/ha): 0
Plant response rating (visual injury vs untreated controls) ([3]; Rate 2000 g/ha): 0
Plant response rating (visual injury vs untreated controls) ([4]; Rate 500 g/ha): 0
Plant response rating (visual injury vs untreated controls) ([4]; Rate 2000 g/ha): 0
Plant response rating (visual injury vs untreated controls) ([5]; Rate 500 g/ha): 0
Plant response rating (visual injury vs untreated controls) ([5]; Rate 2000 g/ha): 0
Plant response rating (visual injury vs untreated controls) ([6]; Rate 500 g/ha): 0
Plant response rating (visual injury vs untreated controls) ([6]; Rate 2000 g/ha): 0
Plant response rating (visual injury vs untreated controls) ([7]; Rate 500 g/ha): 20
Plant response rating (visual injury vs untreated controls) ([7]; Rate 2000 g/ha): 90
Plant response rating (visual injury vs untreated controls) ([8]; Rate 500 g/ha): 80
Plant response rating (visual injury vs untreated controls) ([8]; Rate 2000 g/ha): 100
Plant response rating (visual injury vs untreated controls) ([9]; Rate 500 g/ha): 0
Plant response rating (visual injury vs untreated controls) ([9]; Rate 2000 g/ha): 0
Plant response rating (visual injury vs untreated controls) ([10]; Rate 500 g/ha): 0
Plant response rating (visual injury vs untreated controls) ([10]; Rate 2000 g/ha): 10
Plant response rating (visual injury vs untreated controls) ([11]; Rate 500 g/ha): 0
Plant response rating (visual injury vs untreated controls) ([11]; Rate 2000 g/ha): 20
Plant response rating (visual injury vs untreated controls) ([12]; Rate 500 g/ha): 0
Plant response rating (visual injury vs untreated controls) ([12]; Rate 2000 g/ha): 80

CC(C)(C)c1ccn(C2CCN(c3cccc(I)c3)C2=O)n1 (stereo not drawn) [Compound 88]
Plant response rating (visual injury vs untreated controls) ([1]; Rate 500 g/ha): 40
Plant response rating (visual injury vs untreated controls) ([1]; Rate 2000 g/ha): 90
Plant response rating (visual injury vs untreated controls) ([2]; Rate 500 g/ha): 80
Plant response rating (visual injury vs untreated controls) ([2]; Rate 2000 g/ha): 100
Plant response rating (visual injury vs untreated controls) ([3]; Rate 500 g/ha): 30
Plant response rating (visual injury vs untreated controls) ([3]; Rate 2000 g/ha): 80
Plant response rating (visual injury vs untreated controls) ([4]; Rate 500 g/ha): 20
Plant response rating (visual injury vs untreated controls) ([4]; Rate 2000 g/ha): 40
Plant response rating (visual injury vs untreated controls) ([5]; Rate 500 g/ha): 0
Plant response rating (visual injury vs untreated controls) ([5]; Rate 2000 g/ha): 0
Plant response rating (visual injury vs untreated controls) ([6]; Rate 500 g/ha): 10
Plant response rating (visual injury vs untreated controls) ([6]; Rate 2000 g/ha): 30
Plant response rating (visual injury vs untreated controls) ([7]; Rate 500 g/ha): 70
Plant response rating (visual injury vs untreated controls) ([7]; Rate 2000 g/ha): 100
Plant response rating (visual injury vs untreated controls) ([8]; Rate 500 g/ha): 100
Plant response rating (visual injury vs untreated controls) ([8]; Rate 2000 g/ha): 100
Plant response rating (visual injury vs untreated controls) ([9]; Rate 500 g/ha): 0
Plant response rating (visual injury vs untreated controls) ([9]; Rate 2000 g/ha): 30
Plant response rating (visual injury vs untreated controls) ([10]; Rate 500 g/ha): 40
Plant response rating (visual injury vs untreated controls) ([10]; Rate 2000 g/ha): 100
Plant response rating (visual injury vs untreated controls) ([11]; Rate 500 g/ha): 0
Plant response rating (visual injury vs untreated controls) ([11]; Rate 2000 g/ha): 30
Plant response rating (visual injury vs untreated controls) ([12]; Rate 500 g/ha): 80
Plant response rating (visual injury vs untreated controls) ([12]; Rate 2000 g/ha): 100
